This is an account of results in patent US20250250559A1, “METHOD TO ANALYZE AND OPTIMIZE GENE EDITING MODULES AND DELIVERY APPROACHES” (Hoffmann-La Roche Inc., priority 2016, published 2025).

For this data set, the system named is DPH1 gene. As to the kind of experiment: HRM-PCR on single cells followed by DT sensitivity assay. The class given is cell-based, human. The conditions noted are these: FIG. 5B. As for the experimental part:
Cells which have only one allele of dph1 or dph2 modified are not toxin resistant. To identify and quantify those events, high resolution melting (HRM) PCR was applied in a similar manner as described by Stahl et al (Stahl, et al. 2015): 24 h after transfection, single cells were deposited in 96-well plates by FACS (FACSAria, BD biosciences) and grown until confluency. Cells were washed with PBS and lysed by addition of 40 μL cell lysis buffer (Roche) per well. After 15 mins incubation at RT on a plate shaker (Titramax 1000, Heidolph) at 750 rpm, the cell lysate was 1:5 diluted with PCR grade H2O. 5 μL cell lysate was mixed with a High resolution melting (HRM) master mix (Roche) and with primer spanning the gRNA target sequence. PCR and HRM were performed in an LC480 II (Roche) according the manufacturer's protocol. Clones with edited target genes were identified by their altered melting curve compared to MCF7-WT cells.
Therefore, such clones were expanded (without toxin or Puromycin selection) and subjected to cell viability analyses to discriminate between heterozygous (toxin sensitive) and homozygous (resistant) knockout cells. […] Metabolic activity of surviving cells was assessed by a CellTiterGlo® Luminescent Viability Assay (Promega) performed according to the manufacturer's specifications.

As for “20 mer SpCas9 DPH1 gRNA: Plasmids encoding SpCas9 and Dph1 gRNA (target CAGGGCGGCCGAGACGGCCC, SEQ ID NO: 01) plus PAC donor plasmid, OriGene”, the “mono-allelic gene inactivation (toxin sensitive, HRM confirmed) versus inactivation of both alleles (DTr)” value was “twice as frequent”.
